Results reported in the NIST ThermoML archive (doi:10.1016/j.fluid.2014.10.029).

Details: for mass density: 101.33 kPa, Liquid, Buoyancy - hydrostatic balance with magnetic suspension - one sinker

CCCCn1cc[n+](C)c1C.F[P-](F)(F)(F)(F)F [1-butyl-2,3-dimethylimidazolium hexafluorophosphate]
Wilhelmy plate
Details	surface tension liquid-gas [mN/m]
298.17 K	44.42
313.07 K	43.73
323.27 K	43.16
333.13 K	42.6
338.38 K	42.38
343.51 K	42.13
348.43 K	41.89
353.08 K	41.68
358.76 K	41.41
364.84 K	41.11

CCCC[n+]1cccc(C)c1.F[P-](F)(F)(F)(F)F [1-butyl-3-methylpyridinium hexafluorophosphate]
Wilhelmy plate
Details	surface tension liquid-gas [mN/m]
323.02 K	43.24
327.6 K	42.96
333.18 K	42.58
338.24 K	42.24
343.75 K	41.89
348.09 K	41.63
353.61 K	41.3
358.09 K	40.94
364.84 K	40.51

CCCCCCCn1cc[n+](C)c1.F[P-](F)(F)(F)(F)F [1-heptyl-3-methylimidazolium hexafluorophosphate]
Details	mass density [kg/m3]
292.97 K	1266.43
298.16 K	1262.6
303.16 K	1258.82
308.22 K	1254.84
313.19 K	1250.97
318.05 K	1247.4
323.09 K	1243.43
328.16 K	1239.71
333.36 K	1235.76
337.82 K	1232.14
343.31 K	1228.66
348.05 K	1224.36
352.96 K	1220.98
357.92 K	1217.32
364.45 K	1212.58

surface tension liquid-gas [mN/m]
Details	Ring tensiometer	Wilhemly plate
293.23 K	36.05	–
293.26 K	–	36.06
298.15 K	35.87	35.89
303.13 K	35.6	–
303.15 K	–	35.6
308.2 K	35.31	–
308.21 K	–	35.41
313.22 K	–	35.13
313.26 K	35.14	–
318.05 K	–	34.87
318.08 K	34.74	–
323.21 K	34.65	–
323.22 K	–	34.65
328.1 K	–	34.39
328.18 K	34.3	–
333.37 K	34.07	34.13
337.89 K	–	33.91
338.05 K	33.75	–
343.31 K	33.7	–
343.34 K	–	33.68
348.16 K	–	33.32
348.26 K	33.24	–
353.04 K	–	33.18
357.99 K	33.04	–
358.04 K	–	32.96
364.54 K	32.62	–
364.61 K	–	32.67

CCCCCn1cc[n+](C)c1.F[P-](F)(F)(F)(F)F [1-methyl-3-pentylimidazolium hexafluorophosphate]
surface tension liquid-gas [mN/m]
Details	Ring tensiometer	Wilhelmy plate
262.89 K	43.04	–
268.06 K	42.78	–
273.2 K	–	42.46
277.73 K	–	42.19
277.78 K	42.23	–
283.1 K	41.97	–
283.17 K	–	41.95
288.28 K	–	41.53
288.29 K	41.76	–
292.81 K	41.54	41.49
298.19 K	–	41.24
298.2 K	41.35	–
303.11 K	40.96	–
303.12 K	–	40.94
308.14 K	–	40.68
308.16 K	40.75	–
313.06 K	40.41	40.4
317.95 K	–	40.17
317.98 K	40.23	–
323.19 K	40.04	–
323.2 K	–	39.86
328.3 K	–	39.63
328.37 K	39.69	–
333.51 K	39.41	–
333.52 K	–	39.36
338.58 K	39.09	–
338.6 K	–	39.1
342.99 K	38.8	–
343 K	–	38.86
348.07 K	38.64	–
348.11 K	–	38.64
353.27 K	38.38	–
353.3 K	–	38.4
357.97 K	–	38.11
358.34 K	38.1	–
362.98 K	–	37.85

Details	mass density [kg/m3]
267.86 K	1351.91
273.05 K	1348.4
283.12 K	1339.58
288.38 K	1335.51
292.83 K	1332.19
298.17 K	1328.15
303.2 K	1324.24
308.22 K	1318.91
313.1 K	1315.32
317.98 K	1311.51
323.18 K	1307.37
328.4 K	1303.77
333.5 K	1299.9
338.86 K	1295.93
342.93 K	1292.1
348 K	1288.64
353.25 K	1284.49
358.27 K	1281.15
362.73 K	1277.18

CCCn1cc[n+](C)c1.F[P-](F)(F)(F)(F)F [1-methyl-3-propylimidazolium hexafluorophosphate]
surface tension liquid-gas [mN/m]
Details	Ring tensiometer	Wilhelmy plate
293.21 K	–	48.34
293.23 K	47.98	–
298.2 K	–	47.99
298.23 K	47.77	–
303.01 K	–	47.68
303.04 K	48.03	–
308.2 K	–	47.36
308.21 K	47.15	–
313.17 K	–	47.06
313.22 K	47.18	–
318.07 K	–	46.74
318.17 K	46.99	–
323.11 K	–	46.4
323.22 K	46.76	–
328.22 K	46.09	–
328.25 K	–	46.06
333.39 K	45.83	–
333.45 K	–	45.73
338.46 K	45.38	45.41
343.28 K	44.84	–
343.3 K	–	45.14
348.2 K	44.8	–
348.25 K	–	44.78
352.68 K	–	44.5
352.76 K	44.38	–
358.22 K	43.88	–
358.24 K	–	44.23
364.96 K	–	43.78
365.07 K	43.64	–

CCCCCCCCCn1cc[n+](C)c1.F[P-](F)(F)(F)(F)F [1-nonyl-3-methylimidazolium hexafluorophosphate]
surface tension liquid-gas [mN/m]
Details	Ring tensiometer	Wilhelmy plate
288.14 K	–	33.2
288.18 K	33.64	–
293.07 K	33.26	32.96
298.13 K	32.86	–
298.16 K	–	32.7
303.11 K	–	32.48
303.12 K	32.8	–
308.11 K	–	32.27
308.13 K	32.71	–
313.16 K	–	31.99
313.19 K	32.4	–
318.03 K	–	31.76
318.06 K	32.17	–
323.07 K	–	31.51
323.1 K	31.89	–
328 K	31.7	–
328.04 K	–	31.25
332.93 K	31.43	–
332.95 K	–	30.99
338.37 K	–	30.75
338.49 K	31.11	–
343.34 K	–	30.5
343.59 K	30.88	–
347.87 K	–	30.23
347.9 K	30.57	–
352.81 K	–	29.98
352.87 K	30.32	–
357.85 K	–	29.76
358.12 K	30.14	–
365.11 K	29.71	–
365.22 K	–	29.4

Details	mass density [kg/m3]
293.11 K	1216.29
298.18 K	1212.6
303.15 K	1209.57
308.14 K	1205.42
313.21 K	1201.39
318.08 K	1197.66
323.13 K	1193.94
328.02 K	1190.39
332.95 K	1186.82
338.45 K	1183.02
343.45 K	1179.31
348.02 K	1176.28
352.94 K	1172.76
358.11 K	1168.91
365.13 K	1163.68
